Measured values from patent US20260355199A1, “COMPOSITIONS AND METHODS FOR TREATING OR PREVENTING NONALCOHOLIC STEATOHEPATITIS (NASH), ANOREXIA, DEPRESSION, ENDOMETRIOSIS, AND OTHER DISEASES OR DISORDERS” (priority 2022, published 2026).

How the values were obtained:
[1] = tested on: AGRP, NPY and SLC32A1; assay: AGRP, NPY and SLC32A1 mRNA in SH-SY5Y cells; assay type: cell-based, human; conditions: 10 μM, 48 h
Excerpt: Mouse GT1-7 hypothalamic neuronal cell line (Sigma-Aldrich, SCC116) and human SH-SY5Y neuroblastoma cell line (Sigma Aldrich, 94030304) were purchased and cultured according to the manufacturers' instructions. Purified Ad-TET3 adenovirus (Ad-FLAG.h-TET3, ADV-225322, Vector Biolabs) expressing human TET3 from a CMV promoter and Ad-GFP control adenovirus (1060, Vector Biolabs) were purchased.
For Bobcat339 treatment (FIG. 15A and FIG. 15B), GT1-7 cells grown in 24-well plates at 2×10^5 cells/well were incubated with vehicle or Bobcat339 at a final concentration of 10 μM for 6 h, followed by RNA and protein extractions. […] Protein and RNA were isolated 48 h later and analyzed.
Total RNAs were extracted from neuronal cells or homogenized hypothalamic arcuate nucleus tissue samples using PureLink RNA Mini Kit (Ambion, 12183025). cDNA was synthesized using PrimeScript RT Reagent Kit in a 20 μl reaction containing 0.5-1 μg of total RNA. Real-time quantitative PCR was performed in a 15 μl reaction containing 0.5-1 μl of cDNA using SsoAdvanced Universal SYBR Green Supermix in a Bio-Rad iCycler. […]

[2] = tested on: OC-bearing mice; assay: Ovarian cancer (ID8-luc2)-induced anorexia model; assay type: in vivo; conditions: 0.05 mg/mouse once a week i.p.
Excerpt: Furthermore, the present studies use the luciferase-expressing mouse ovarian surface epithelial cancer cell line ID8-luc2 (Liao J B et al., 2015, J Immunother Cancer, 3:16) that was originally derived from C57BL/6 mice (Roby K F et al., 2000, Carcinogenesis, 21:585-591). ID8-luc2 allow in vivo imaging of intraperitoneal tumors to monitor tumor growth (Udumula M P et al., 2021, Mol Metab., 53:101272; Liao J B et al., 2015, J Immunother Cancer, 3:16). Agrp-IRES-Cre::LSL-Cas9-GFP mice (C57BL/6 background) that express GFP specifically in AgRP neurons are used, hereafter called AgRP-GFP. […] Tumors were readily detected by bioluminescent imaging 10-14 days after inoculation (Udumula M P et al., 2021, Mol Metab., 53:101272; Liao J B et al., 2015, J Immunother Cancer, 3:16). Visible ascites (detected by abdominal swelling) developed at ~3 weeks following implantation (Roby K F et al., 2000, Carcinogenesis, 21:585-591). […] Bioluminescence signals of the tumor are recorded using the Xenogen IVIS system. Food intake is monitored manually on a daily basis and energy expenditure is measured using a computer-controlled indirect calorimetry system.
Additional studies test whether Bobcat339 alleviates OC-induced anorexia and hypermetabolism. […] Food intake are monitored daily and energy expenditure are determined once a week for three weeks before euthanasia. […]

[3] = tested on: high fat diet (HFD)-induced diabetic mice; assay: Feeding of HFD-induced diabetic mice; assay type: in vivo, mouse; conditions: drinking water, two weeks
Excerpt: It has previously been shown that TET3 expression is aberrantly elevated in the livers of humans and mice with type 2 diabetes and that liver-specific, siRNA-mediated TET3 knockdown improves glucose homeostasis both in dietary and genetic mouse models of diabetes (Li D. et al., 2020, Nature Communications, 11:342). Bobcat339 (4-Amino-1-[1,1′-biphenyl]-3-yl-5-chloro-2(1H)-pyrimidinone) is a synthetic cytosine derivative capable of binding competitively with 5mC to the active sites of [COMPOUND LEFT OUT] and inhibits their enzymatic activity in cultured neuronal cells (Chua G. N. L. et al., 2019, ACS Medicinal Chemistry Letters, 10:180-185). Although not bound by any particular theory, it was hypothesized that Bobcat339 has an anti-diabetic effect owing to its ability to inhibit [COMPOUND LEFT OUT]. Thus, the present studies employed high fat diet (HFD)-induced diabetic mice that were treated with Bobcat339 in drinking water for two weeks. […] Thus, nondiabetic mice fed on regular chow were treated with Bobcat339 in drinking water. Four days later, ARCs were isolated from ad libitum-fed mice and analyzed. […] In light of these observations, additional studies began to explore [COMPOUND LEFT OUT] in AgRP neurons for a potential role in the control of feeding and energy metabolism.

In the case of `Nc1nc(=O)n(-c2cccc(-c3ccccc3)c2)cc1Cl` [Bobcat339, 4-Amino-1-[1,1′-biphenyl]-3-yl-5-chloro-2(1H)-pyrimidinone], the “AGRP, NPY and SLC32A1 mRNA levels” value [1] is reported as “significant increases in Agrp/NPY mRNAs”, the OC progression [2] is reported as “decreased OC progression” and the “cancer anorexia and hypermetabolism” value [2] is reported as “not only prevents cancer anorexia and hypermetabolism from developing but eliminates it after it is established”. The feeding [3] was “became hyperphagic”.
